According to patent US9822126B1, “Substituted 1,2,3-triazol-1-yl-methyl-2,3-dihydro-2-methyl-6-nitroimidazo[2,1-b]oxazoles as anti-mycobacterial agents and a process for the preparation thereof” (priority 2014, dated 2017):
In brackets after ≈: the same amount, converted by molar mass. Read-outs that look alike come from different tables or passages of the source.

Tests used:
Format in all cases: cell-based
[1] = test system: M. tuberculosis H37Rv (ATCC 27294); experiment: MIC by broth dilution against M. tuberculosis H37Rv (replicating); details: Mycobacterium tuberculosis
[2] = test system: non-replicating stages of M. tuberculosis; experiment: MIC against non-replicating M. tuberculosis; details: Mycobacterium tuberculosis, read-out: MIC Non-replicating strain
[3] = test system: macrophage J774 cells line; experiment: Cytotoxicity assay (MTT) in macrophage J774 cells; details: macrophage J774, 24 hrs incubation, tested at 40 μg/ml
Method: The study was carried out using macrophage J774 cells line (ATCC-USA). Cells were grown in Rosewell Park Memorial Institute Medium (RPMI) containing 10% fetal calf serum (FCS) and supplemented with 75 mg/liter penicillin, 100 mg/liter streptomycin, 110 mg/liter Sodium pyruvate, 2.38 gm/liter HEPES, 0.05 mM 2 β-mercaptoethanol, and 2 gm/liter NaHCO3, in a humidified atmosphere in 5% CO2 at 37° C., and were sub-cultured at 1:4 ratio once a week.
Cells were plated at a density of 3×10^4 cells/cm^2 and maintained in culture medium for 12 hours. Cells were seeded onto 96-well flat bottom plates and FCS was reduced to 5% for the experiment. Stock solutions of compounds 9 to 37 were prepared fresh to avoid oxidation. Cells were incubated with the compounds (40 μg/ml) for 24 hrs.
After the completion of incubation, the medium was removed and cell viability was evaluated by assaying for the ability of functional mitochondria to catalyze the reduction of 3-(4,5-dimethylthiazol-2-yl)-2,5-diphenyltetrazolium bromide (MTT) to form formazan salt by mitochondrial dehydrogenases, and determined by Elisa reader at 450 nm (Multiskan Spectrum; Thermo Electron Corporation, USA). Percentage cytotoxicity was calculated with respect to the untreated cells.

[4] = 504 h, broth dilution, 37° C. for 3-weeks, read visually, replicating stage, read-out: MIC M. tb H37Rv

Question: What does the source list for `Cc1cccc(OCc2cn(C[C@@]3(C)Cn4cc([N+](=O)[O-])nc4O3)nn2)c1` [I13, (R)-2-Methyl-6-nitro-2-((4-((m-tolyloxy)methyl)-1H-1,2,3-triazol-1-yl)methyl)-2,3-dihydroimidazo[2,1-b]oxazole]?
Answer: MIC [1, 4]: 0.5 µg/mL (≈ 1.35 µM); MIC ([1]; read-out: MIC value): < 1 µg/mL; MIC [2]: 0.5 µg/mL (≈ 1.35 µM); Cytotoxicity [3]: >40 µg/mL

Question: Which results are given for `Cc1ccc(OCCc2cn(C[C@@]3(C)Cn4cc([N+](=O)[O-])nc4O3)nn2)cc1` [I21, (R)-2-Methyl-6-nitro-2-((4-(2-(p-tolyloxy)ethyl)-1H-1,2,3-triazol-1-yl)methyl)-2,3-dihydroimidazo[2,1-b]oxazole]?
Answer: MIC [1, 4]: 0.25 µg/mL (≈ 0.65 µM); MIC ([1]; read-out: MIC value): < 1 µg/mL; MIC [2]: 0.25 µg/mL (≈ 0.65 µM); Cytotoxicity [3]: >40 µg/mL

Question: Which MIC [1, 4] does the source give for `C[C@]1(Cn2cc(-c3ccc(C(F)(F)F)cc3)nn2)Cn2cc([N+](=O)[O-])nc2O1` [I2, (R)-2-Methyl-6-nitro-2-((4-(4-(trifluoromethyl)phenyl)-1H-1,2,3-triazol-1-yl)methyl)-2,3-dihydroimidazo[2,1-b]oxazole] here?
Answer: The MIC was 2 µg/mL (≈ 5.07 µM).

Question: And the MIC [2]?
Answer: The MIC was 8 µg/mL (≈ 20.3 µM).

Question: What about the Cytotoxicity [3] of the same compound?
Answer: Its Cytotoxicity is over 40 µg/mL.

Question: With `C[C@]1(Cn2cc(-c3ccc(OC(F)(F)F)cc3)nn2)Cn2cc([N+](=O)[O-])nc2O1` [I1, (R)-2-Methyl-6-nitro-2-((4-(4-(trifluoromethoxy)phenyl)-1H-1,2,3-triazol-1-yl)methyl)-2,3-dihydroimidazo[2,1-b]oxazole] as the compound, how does the MIC [1, 4] read?
Answer: Its MIC is 2 µg/mL (≈ 4.87 µM).

Question: What about the MIC [2] of the same compound?
Answer: Its MIC is 4 µg/mL (≈ 9.75 µM).

Question: What about the Cytotoxicity [3] of the same compound?
Answer: The Cytotoxicity was over 40 µg/mL.

Question: Which results are given for `C[C@]1(Cn2cc(COc3ccc(C(F)(F)F)cc3)nn2)Cn2cc([N+](=O)[O-])nc2O1` [I9, (R)-2-Methyl-6-nitro-2-((4-((4-(trifluoromethyl)phenoxy)methyl)-1H-1,2,3-triazol-1-yl)methyl)-2,3-dihydroimidazo[2,1-b]oxazole]?
Answer: MIC [1, 4]: 1 µg/mL (≈ 2.36 µM); MIC [2]: 2 µg/mL (≈ 4.71 µM); Cytotoxicity [3]: >40 µg/mL

Question: What does the source list for `Cc1ccc(SCc2cn(C[C@@]3(C)Cn4cc([N+](=O)[O-])nc4O3)nn2)cc1` [I20, (R)-2-Methyl-6-nitro-2-((4-((p-tolylthio)methyl)-1H-1,2,3-triazol-1-yl)methyl)-2,3-dihydroimidazo[2,1-b]oxazole]?
Answer: MIC [1, 4]: 2 µg/mL (≈ 5.18 µM); MIC [2]: 1 µg/mL (≈ 2.59 µM); Cytotoxicity [3]: >40 µg/mL

Question: With `Cc1cc(-c2cn(C[C@@]3(C)Cn4cc([N+](=O)[O-])nc4O3)nn2)ccc1F` [I4, (R)-2-((4-(4-Fluoro-3-methylphenyl)-1H-1,2,3-triazol-1-yl)methyl)-2-methyl-6-nitro-2,3-dihydroimidazo[2,1-b]oxazole] as the compound, how does the MIC [1, 4] read?
Answer: Its MIC is 2 µg/mL (≈ 5.58 µM).

Question: And the MIC [2]?
Answer: Its MIC is 4 µg/mL (≈ 11.2 µM).

Question: What about the Cytotoxicity [3] of the same compound?
Answer: The Cytotoxicity was over 40 µg/mL.

Question: Which results are given for `CCCCCc1cn(C[C@@]2(C)Cn3cc([N+](=O)[O-])nc3O2)nn1` [I7, (R)-2-[(4-Pentyl-1H-1,2,3-triazol-1-yl)methyl]-2,3-dihydro-2-methyl-6-nitroimidazo[2,1-b]oxazole]?
Answer: MIC [1, 4]: 2 µg/mL (≈ 6.24 µM); MIC [2]: 4 µg/mL (≈ 12.5 µM); Cytotoxicity [3]: >40 µg/mL

Question: With `C[C@]1(Cn2cc(-c3ccc(Oc4ccccc4)cc3)nn2)Cn2cc([N+](=O)[O-])nc2O1` [I6, (R)-2-Methyl-6-nitro-2-((4-(4-phenoxyphenyl)-1H-1,2,3-triazol-1-yl)methyl)-2,3-dihydroimidazo[2,1-b]oxazole] as the compound, how does the MIC [1, 4] read?
Answer: The MIC was 2 µg/mL (≈ 4.78 µM).

Question: What about the MIC [2] of the same compound?
Answer: Its MIC is 2 µg/mL (≈ 4.78 µM).

Question: What about the Cytotoxicity [3] of the same compound?
Answer: Its Cytotoxicity is over 40 µg/mL.

Question: `C[C@]1(Cn2cc(COc3ccc(Br)cc3)nn2)Cn2cc([N+](=O)[O-])nc2O1` [I11, (R)-2-((4-((4-Bromophenoxy)methyl)-1H-1,2,3-triazol-1-yl)methyl)-2-methyl-6-nitro-2,3-dihydroimidazo[2,1-b]oxazole] was tested. Which MIC [1, 4] did it give?
Answer: Its MIC is 0.12 µg/mL (≈ 0.276 µM).

Question: And the MIC ([1]; read-out: MIC value)?
Answer: Its MIC is under 1 µg/mL.

Question: And the MIC [2]?
Answer: The MIC was 0.25 µg/mL (≈ 0.574 µM).

Question: What about the Cytotoxicity [3] of the same compound?
Answer: The Cytotoxicity was over 40 µg/mL.

Question: Which MIC [1, 4] does the source give for `Cc1ccc(OCc2cn(C[C@@]3(C)Cn4cc([N+](=O)[O-])nc4O3)nn2)cc1` [I12, (R)-2-Methyl-6-nitro-2-((4-((p-tolyloxy)methyl)-1H-1,2,3-triazol-1-yl)methyl)-2,3-dihydroimidazo[2,1-b]oxazole] here?
Answer: Its MIC is 1 µg/mL (≈ 2.7 µM).

Question: And the MIC [2]?
Answer: The MIC was 2 µg/mL (≈ 5.4 µM).

Question: What about the Cytotoxicity [3] of the same compound?
Answer: The Cytotoxicity was over 40 µg/mL.

Question: What does the source list for `C[C@]1(Cn2cc(COc3ccccc3F)nn2)Cn2cc([N+](=O)[O-])nc2O1` [I17, (R)-2-((4-((2-Fluorophenoxy)methyl)-1H-1,2,3-triazol-1-yl)methyl)-2-methyl-6-nitro-2,3-dihydroimidazo[2,1-b]oxazole]?
Answer: MIC [1, 4]: 0.25 µg/mL (≈ 0.668 µM); MIC ([1]; read-out: MIC value): < 1 µg/mL; MIC [2]: 0.5 µg/mL (≈ 1.34 µM); Cytotoxicity [3]: >40 µg/mL

Question: `C[C@]1(Cn2cc(-c3ccc(F)cc3)nn2)Cn2cc([N+](=O)[O-])nc2O1` [I3, (R)-2-((4-(4-Fluorophenyl)-1H-1,2,3-triazol-1-yl)methyl)-2-methyl-6nitro-2,3-dihydro imidazo[2,1-b]oxazole] was tested. Which MIC [1, 4] did it give?
Answer: The MIC was 1 µg/mL (≈ 2.9 µM).

Question: What about the MIC [2] of the same compound?
Answer: Its MIC is 2 µg/mL (≈ 5.81 µM).

Question: What about the Cytotoxicity [3] of the same compound?
Answer: Its Cytotoxicity is over 40 µg/mL.

Question: Which MIC [1, 4] does the source give for `C[C@]1(Cn2cc(COc3cccc(Cl)c3)nn2)Cn2cc([N+](=O)[O-])nc2O1` [I10, (R)-2-((4-((3-Chlorophenoxy)methyl)-1H-1,2,3-triazol-1-yl)methyl)-2-methyl-6-nitro-2,3-dihydroimidazo[2,1-b]oxazole] here?
Answer: Its MIC is 0.5 µg/mL (≈ 1.28 µM).

Question: What about the MIC ([1]; read-out: MIC value) of the same compound?
Answer: The MIC was under 1 µg/mL.

Question: And the MIC [2]?
Answer: The MIC was 1 µg/mL (≈ 2.56 µM).

Question: And the Cytotoxicity [3]?
Answer: The Cytotoxicity was over 40 µg/mL.

Question: Which results are given for `C[C@]1(Cn2cc(COc3cccc(F)c3)nn2)Cn2cc([N+](=O)[O-])nc2O1` [I16, (R)-2-((4-((3-Fluorophenoxy)methyl)-1H-1,2,3-triazol-1-yl)methyl)-2-methyl-6-nitro-2,3-dihydroimidazo[2,1-b]oxazole]?
Answer: MIC [1, 4]: 1 µg/mL (≈ 2.67 µM); MIC [2]: 2 µg/mL (≈ 5.34 µM); Cytotoxicity [3]: >40 µg/mL

Question: For `Cc1ccccc1OCc1cn(C[C@@]2(C)Cn3cc([N+](=O)[O-])nc3O2)nn1` [I14, (R)-2-Methyl-6-nitro-2-((4-((o-tolyloxy)methyl)-1H-1,2,3-triazol-1-yl)methyl)-2,3-dihydroimidazo[2,1-b]oxazole], which MIC [1, 4] is on record?
Answer: Its MIC is 0.5 µg/mL (≈ 1.35 µM).

Question: What about the MIC ([1]; read-out: MIC value) of the same compound?
Answer: The MIC was under 1 µg/mL.

Question: What about the MIC [2] of the same compound?
Answer: The MIC was 2 µg/mL (≈ 5.4 µM).

Question: What about the Cytotoxicity [3] of the same compound?
Answer: The Cytotoxicity was over 40 µg/mL.

Question: What does the source list for `CC(C)c1ccc(OCc2cn(C[C@@]3(C)Cn4cc([N+](=O)[O-])nc4O3)nn2)cc1` [I18, (R)-2-((4-((4-Isopropylphenoxy)methyl)-1H-1,2,3-triazol-1-yl)methyl)-2-methyl-6-nitro-2,3-dihydroimidazo[2,1-b]oxazole]?
Answer: MIC [1, 4]: 0.5 µg/mL (≈ 1.25 µM); MIC ([1]; read-out: MIC value): < 1 µg/mL; MIC [2]: 1 µg/mL (≈ 2.51 µM); Cytotoxicity [3]: >40 µg/mL

Question: Which results are given for `C[C@]1(Cn2cc(-c3ccc(F)cc3F)nn2)Cn2cc([N+](=O)[O-])nc2O1` [I5, (R)-2-((4-(2,4-Difluorophenyl)-1H-1,2,3-triazol-1-yl)methyl)-2-methyl-6-nitro-2,3-dihydroimidazo[2,1-b]oxazole]?
Answer: MIC [1, 4]: 1 µg/mL (≈ 2.76 µM); MIC [2]: 8 µg/mL (≈ 22.1 µM); Cytotoxicity [3]: >40 µg/mL

Question: `C[C@]1(Cn2cc(COc3ccccn3)nn2)Cn2cc([N+](=O)[O-])nc2O1` [I19, (R)-2-Methyl-6-nitro-2-((4-((pyridin-2-yloxy)methyl)-1H-1,2,3-triazol-1-yl)methyl)-2,3-dihydroimidazo[2,1-b]oxazole] was tested. Which MIC [1, 4] did it give?
Answer: Its MIC is 1 µg/mL (≈ 2.8 µM).

Question: What about the MIC [2] of the same compound?
Answer: The MIC was 2 µg/mL (≈ 5.6 µM).

Question: And the Cytotoxicity [3]?
Answer: Its Cytotoxicity is over 40 µg/mL.

Question: For `CCc1ccc(OCc2cn(C[C@@]3(C)Cn4cc([N+](=O)[O-])nc4O3)nn2)cc1` [I15, (R)-2-((4-((4-Ethylphenoxy)methyl)-1H-1,2,3-triazol-1-yl)methyl)-2-methyl-6-nitro-2,3-dihydroimidazo[2,1-b]oxazole], which MIC [1, 4] is on record?
Answer: The MIC was 2 µg/mL (≈ 5.2 µM).

Question: What about the MIC [2] of the same compound?
Answer: The MIC was 2 µg/mL (≈ 5.2 µM).

Question: And the Cytotoxicity [3]?
Answer: Its Cytotoxicity is over 40 µg/mL.

Question: `C[C@]1(Cn2cc(COc3ccc(OC(F)(F)F)cc3)nn2)Cn2cc([N+](=O)[O-])nc2O1` [I8, (R)-2-Methyl-6-nitro-2-((4-((4-(trifluoromethoxy)phenoxy)methyl)-1H-1,2,3-triazol-1-yl)methyl)-2,3-dihydroimidazo[2,1-b]oxazole] was tested. Which MIC [1, 4] did it give?
Answer: Its MIC is 2 µg/mL (≈ 4.54 µM).

Question: And the MIC [2]?
Answer: Its MIC is 4 µg/mL (≈ 9.08 µM).

Question: And the Cytotoxicity [3]?
Answer: The Cytotoxicity was over 40 µg/mL.

Question: With `C[C@]1(Cn2cc(CN3CCOCC3)nn2)Cn2cc([N+](=O)[O-])nc2O1` [I22, (R)-2-Methyl-2-((4-(morpholinomethyl)-1H-1,2,3-triazol-1-yl)methyl)-6-nitro-2,3-dihydroimidazo[2,1-b]oxazole] as the compound, how does the MIC [1, 4] read?
Answer: The MIC was 2 µg/mL (≈ 5.72 µM).

Question: And the MIC [2]?
Answer: Its MIC is 1 µg/mL (≈ 2.86 µM).

Question: What about the Cytotoxicity [3] of the same compound?
Answer: The Cytotoxicity was over 40 µg/mL.
